In patent US8609610B2, “Inhibitors of the trypsin-like site of the proteasome and methods of use thereof” (Trustees of Dartmouth College, priority 2011, dated 2013):

Tests used:
Assay in all cases: ALAMAR BLUE cell viability assay
Assay type in all cases: cell-based
KMS-18 cells = conditions: then 48 h
Procedure: (§1) RPMI-8226 and NCI-H929 cells were cultured in RPMI-1640 supplemented with 10% fetal bovine serum, penicillin, streptomycin, and plasmocin in 5% CO2 humidified incubator. HEK-293T cells were cultured in DMEM containing 10% fetal calf serum, 10 units/mL penicillin, and 10 μg/mL streptomycin in a 7% CO2 humidified incubator. Viability of multiple myeloma cells was measured with ALAMAR BLUE mitochondrial dye conversion assay. Viability of peripheral blood mononuclear cells (PBMNCs) was measured using CELL TITER-GLO luminescent cell viability assay (Promega), which is based on quantification of ATP present in the cells. Caspase-3/7 activity was measured using APO-ONE 3/7 homogeneous assay (Promega).

RPMI-8226 cells = conditions: RPMI-8226, then 48 h
Procedure: as §1

NCI-H929 cells = conditions: NCI-H929, then 48 h
Procedure: as §1

KMS-12-BM cells = conditions: then 48 h
Procedure: as §1

MM1.R cells = conditions: LU-005 0.004 μM 1 h, then 48 h
Procedure: as §1

Compound: CC(C)C[C@H](NC(=O)[C@H](Cc1c(F)c(F)c(F)c(F)c1F)NC(=O)[C@H](Cc1ccccc1)NC(=O)[C@H](Cc1ccccc1)N=[N+]=[N-])C(=O)[C@@]1(C)CO1 [LU-005]
- Viability +NC-002 & NC-001 (KMS-18 cells; LU-005 0.037 μM 1 h): 79 ± 14 % control
- Viability +NC-022 (KMS-18 cells; LU-005 0.037 μM 1 h): 104 ± 3 % control
- Viability −NC-022 (KMS-18 cells; LU-005 0.037 μM 1 h): 108 ± 1 % control
- Viability +NC-002 & NC-001 (KMS-18 cells; LU-005 0.33 μM 1 h): 33 ± 20 % control
- Viability +NC-022 (KMS-18 cells; LU-005 0.33 μM 1 h): 106 ± 16 % control
- Viability −NC-022 (KMS-18 cells; LU-005 0.33 μM 1 h): 108 ± 0 % control
- Viability +NC-002 & NC-001 (KMS-18 cells; LU-005 1.0 μM 1 h): 8 ± 4 % control
- Viability +NC-022 (KMS-18 cells; LU-005 1.0 μM 1 h): 29 ± 12 % control
- Viability −NC-022 (KMS-18 cells; LU-005 1.0 μM 1 h): 88 ± 16 % control
- Viability +NC-002 & NC-001 (KMS-18 cells; LU-005 3.0 μM 1 h): 1 ± 0.1 % control
- Viability +NC-022 (KMS-18 cells; LU-005 3.0 μM 1 h): 24 ± 8 % control
- Viability −NC-022 (KMS-18 cells; LU-005 3.0 μM 1 h): 72 ± 2 % control
- Viability +NC-002 & NC-001 (KMS-18 cells; LU-005 9.0 μM 1 h): 0.8 ± 0.2 % control
- Viability +NC-022 (KMS-18 cells; LU-005 9.0 μM 1 h): 17.5 ± 7.5 % control
- Viability −NC-022 (KMS-18 cells; LU-005 9.0 μM 1 h): 45 ± 8 % control
- Viability +NC-002 & NC-001 (RPMI-8226 cells; LU-005 0.037 μM 1 h): 76 ± 3 % control
- Viability +NC-022 (RPMI-8226 cells; LU-005 0.037 μM 1 h): 104 ± 5 % control
- Viability −NC-022 (RPMI-8226 cells; LU-005 0.037 μM 1 h): 109 ± 2 % control
- Viability +NC-002 & NC-001 (RPMI-8226 cells; LU-005 0.33 μM 1 h): 4.6 ± 0.7 % control
- Viability +NC-022 (RPMI-8226 cells; LU-005 0.33 μM 1 h): 31 ± 9 % control
- Viability −NC-022 (RPMI-8226 cells; LU-005 0.33 μM 1 h): 94 ± 1 % control
- Viability +NC-002 & NC-001 (RPMI-8226 cells; LU-005 1.0 μM 1 h): 1 ± 0 % control
- Viability +NC-022 (RPMI-8226 cells; LU-005 1.0 μM 1 h): 6 ± 3 % control
- Viability −NC-022 (RPMI-8226 cells; LU-005 1.0 μM 1 h): 10 ± 10 % control
- Viability +NC-002 & NC-001 (NCI-H929 cells; LU-005 0.0014 μM 1 h): 50 ± 17 % control
- Viability +NC-022 (NCI-H929 cells; LU-005 0.0014 μM 1 h): 77 ± 2 % control
- Viability −NC-022 (NCI-H929 cells; LU-005 0.0014 μM 1 h): 97 ± 9 % control
- Viability +NC-002 & NC-001 (NCI-H929 cells; LU-005 0.004 μM 1 h): 36 ± 14 % control
- Viability +NC-022 (NCI-H929 cells; LU-005 0.004 μM 1 h): 69 ± 0 % control
- Viability −NC-022 (NCI-H929 cells; LU-005 0.004 μM 1 h): 100 ± 13 % control
- Viability +NC-002 & NC-001 (KMS-12-BM cells; LU-005 0.037 μM 1 h): 50 ± 2 % control
- Viability +NC-022 (KMS-12-BM cells; LU-005 0.037 μM 1 h): 90 ± 5 % control
- Viability −NC-022 (KMS-12-BM cells; LU-005 0.037 μM 1 h): 89 ± 8 % control
- Viability +NC-002 & NC-001 (KMS-12-BM cells; LU-005 0.33 μM 1 h): 2 ± 0 % control
- Viability +NC-022 (KMS-12-BM cells; LU-005 0.33 μM 1 h): 12 ± 2 % control
- Viability −NC-022 (KMS-12-BM cells; LU-005 0.33 μM 1 h): 80 ± 9 % control
- Viability +NC-002 & NC-001 (KMS-12-BM cells; LU-005 1.0 μM 1 h): 1 ± 0 % control
- Viability +NC-022 (KMS-12-BM cells; LU-005 1.0 μM 1 h): 1.5 ± 0.1 % control
- Viability −NC-022 (KMS-12-BM cells; LU-005 1.0 μM 1 h): 27 ± 6 % control
- Viability +NC-002 & NC-001 (MM1.R cells): 26 ± 6 % control
- Viability +NC-022 (MM1.R cells): 66 ± 1 % control
- Viability −NC-022 (MM1.R cells): 102 ± 4 % control
